The assay has as its target T1, NHE-1 (Homo sapiens, UniProt P19634).
T1 construct: endogenous in cells; host or cells: HT-29
As to the kind of experiment: Evaluation of NHE-1 Inhibition (pHi) in HT-29 cells. The format is cell-based. The following applies: BCECF dye, 50% inhibition of the intracellular pH recovery, read-out: NHE1 HT29 pHi IC50. On the procedure: Evaluation of NHE-1 Inhibition (pHi)
HT-29 cells resuspended in DMEM supplemented with 10% FBS, 1% NEAA, and 1% Penn-Strep are seeded at 10,000 cells/well in collagen coated 384 well plates which are then incubated for 24 hours at 37° C. The next day, the medium is removed and the cells are dye (Invitrogen's BCECF) loaded for 30 minutes at 37° C., washed three times with an acid loading buffer (10 mM NH4Cl, 1.8 mM CaCl2, 90 mM Choline Cl, 5 mM Glucose, 15 mM Hepes, 5 mM KCl, 1 mM MgCl2, adjusted to pH 7.5 with KOH) and further incubated at RT for 30 minutes.
At the end of the incubation, the buffer is removed and 5 uL of fresh acid loading buffer is added to each well to prevent the dessication of the cells. The plate is placed in a Hamamatsu FDSS6000 instrument and candidate compounds are added to the cells.

For orientation: IC50 means the concentration needed to halve the response being measured.

T1 sequence (P19634 whole entry): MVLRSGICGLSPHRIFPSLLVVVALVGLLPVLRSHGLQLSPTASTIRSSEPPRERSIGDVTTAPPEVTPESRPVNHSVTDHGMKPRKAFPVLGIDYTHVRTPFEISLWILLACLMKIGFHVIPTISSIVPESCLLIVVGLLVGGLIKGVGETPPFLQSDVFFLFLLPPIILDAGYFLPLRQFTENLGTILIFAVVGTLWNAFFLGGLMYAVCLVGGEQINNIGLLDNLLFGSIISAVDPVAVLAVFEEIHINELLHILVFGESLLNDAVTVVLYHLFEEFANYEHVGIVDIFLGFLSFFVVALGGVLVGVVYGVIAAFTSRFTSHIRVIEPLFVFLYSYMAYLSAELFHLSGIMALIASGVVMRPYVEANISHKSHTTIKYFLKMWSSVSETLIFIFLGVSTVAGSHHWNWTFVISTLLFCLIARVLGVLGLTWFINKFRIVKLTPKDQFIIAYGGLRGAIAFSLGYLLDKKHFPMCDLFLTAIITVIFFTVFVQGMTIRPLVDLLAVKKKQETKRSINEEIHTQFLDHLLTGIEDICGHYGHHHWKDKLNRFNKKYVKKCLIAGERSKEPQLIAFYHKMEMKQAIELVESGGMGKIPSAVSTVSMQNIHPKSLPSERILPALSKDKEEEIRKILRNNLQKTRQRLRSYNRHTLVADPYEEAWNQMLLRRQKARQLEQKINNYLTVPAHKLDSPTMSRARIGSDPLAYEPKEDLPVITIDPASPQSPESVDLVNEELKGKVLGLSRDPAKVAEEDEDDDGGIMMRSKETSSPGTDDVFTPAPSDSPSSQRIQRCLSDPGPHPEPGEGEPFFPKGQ

As for `N=C(N)NC(=O)c1ccc(C2CCN(C(=O)c3ccc(S(N)(=O)=O)cc3)CC2)c(C(F)(F)F)c1` [4-[4-(4-Guanidinocarbonyl-2-trifluoromethyl-phenyl)-piperidine-1-carbonyl]-benzenesulfonamdide], the IC50 came to 0.013 µM. Consider `N=C(N)NC(=O)c1ccc(C2CCN(C(=O)[C@@H](N)c3ccccc3)CC2)c(C(F)(F)F)c1` [(S)-N-{4-[1-(-2-Amino-2-phenyl-acetyl)-piperidin-4-yl]-3-trifluoromethyl-benzoyl}-guanidine], for which the IC50 worked out at 0.021 µM. As for `N=C(N)NC(=O)c1ccc(C2CCN(C(=O)c3ccc(S(=O)(=O)C(F)(F)F)cc3)CC2)c(C(F)(F)F)c1` [N-{4-[1-(4-Trifluoromethanesulfonyl-benzoyl)-piperidin-4-yl]-3-trifluoromethyl-benzoyl}-guanidine], the IC50 worked out at 0.23 µM. With `N=C(N)NC(=O)c1ccc([C@H]2CCN(C(=O)c3ccco3)C2)c(C(F)(F)F)c1` [(R)-N-{4-[1-(Furan-2-carbonyl)-pyrrolidin-3-yl]-3-trifluoromethyl-benzoyl}-guanidine], the IC50 was 0.028 µM. In the case of `N=C(N)NC(=O)c1ccc(C2CCN(C(=O)C3CCNCC3)CC2)c(C(F)(F)F)c1` [N-{4-[1-(Piperidine-4-carbonyl)-piperidin-4-yl]-3-trifluoromethyl-benzoyl}-guanidine], the half-maximal inhibitory concentration (IC50) amounted to 0.006 µM. As for `N=C(N)NC(=O)c1ccc(C2CCN(C(=O)[C@@H](N)CC(=O)O)CC2)c(C(F)(F)F)c1` [(S)-3-Amino-4-[4-(4-guanidinocarbonyl-2-trifluoromethyl-phenyl)-piperidin-1-yl]-4-oxo-butyric acid], the IC50 amounted to 0.009 µM.

As for `CS(=O)(=O)c1ccc(C(=O)N2CCC(c3ccc(C(=O)NC(=N)N)cc3C(F)(F)F)CC2)cc1` [N-{4-[1-(4-Methanesulfonyl-benzoyl)-piperidin-4-yl]-3-trifluoromethyl-benzoyl}-guanidine], the IC50 was found to be 0.021 µM.

Consider `Cc1ccccc1C(=O)N1CCC(c2ccc(C(=O)NC(=N)N)cc2C(F)(F)F)CC1` [N-{4-[1-(2-Methyl-benzoyl)-piperidin-4-yl]-3-trifluoromethyl-benzoyl}-guanidine], for which the half-maximal inhibitory concentration (IC50) was determined as 0.051 µM. For `N=C(N)NC(=O)c1ccc(C2CCN(C(=O)CCc3ccccc3)CC2)c(C(F)(F)F)c1` [N-{4-[1-(3-Phenyl-propionyl)-piperidin-4-yl]-3-trifluoromethyl-benzoyl}-guanidine], the IC50 came out at 0.075 µM. For the compound `CS(=O)(=O)c1ccccc1C(=O)N1CCC(c2ccc(C(=O)NC(=N)N)cc2C(F)(F)F)CC1` [N-{4-[1-(2-Methanesulfonyl-benzoyl)-piperidin-4-yl]-3-trifluoromethyl-benzoyl}-guanidine], the IC50 stood at 0.069 µM.

For the compound `CS(=O)(=O)c1ccc(C(=O)N2CC=C(c3ccc(C(=O)NC(=N)N)cc3C(F)(F)F)CC2)cc1` [N-{4-[1-(4-Methanesulfonyl-benzoyl)-1,2,3,6-tetrahydro-pyridin-4-yl]-3-trifluoromethyl-benzoyl}-guanidine], the IC50 turned out to be 0.049 µM.

Consider `N#Cc1ccc(C(=O)N2CCC(c3ccc(C(=O)NC(=N)N)cc3C(F)(F)F)CC2)cc1` [N-{4-[1-(4-Cyano-benzoyl)-piperidin-4-yl]-3-trifluoromethyl-benzoyl}-guanidine], for which the concentration for half-maximal inhibition (IC50) is 0.024 µM. As for `CN(C)c1ccc(C(=O)N2CCC(c3ccc(C(=O)NC(=N)N)cc3C(F)(F)F)CC2)cc1` [N-{4-[1-(4-Dimethylamino-benzoyl)-piperidin-4-yl]-3-trifluoromethyl-benzoyl}-guanidine], the concentration for half-maximal inhibition (IC50) came to 0.18 µM. Regarding `N=C(N)NC(=O)c1ccc(C2CCN(C(=O)c3ccc[nH]3)CC2)c(C(F)(F)F)c1` [N-{4-[1-(1H-Pyrrole-2-carbonyl)-piperidin-4-yl]-3-trifluoromethyl-benzoyl}-guanidine], the IC50 was 0.046 µM. As for `N=C(N)NC(=O)c1ccc(C2CCN(C(=O)c3ccc[nH]3)CC2)cc1` [N-{4-[1-(1H-Pyrrole-2-carbonyl)-piperidin-4-yl]-benzoyl}-guanidine], the IC50 is 0.385 µM. Then `COc1cc(C2CCN(C(=O)[C@H](OC(C)=O)c3ccccc3)CC2)c(C(F)(F)F)cc1C(=O)NC(=N)N` [(R)-Acetic acid 2-[4-(4-guanidinocarbonyl-5-methoxy-2-trifluoromethyl-phenyl)-piperidin-1-yl]-2-oxo-1-phenyl-ethyl ester], with 0.11 µM; and `N=C(N)NC(=O)c1ccc(C2CCN(C(=O)c3ccccc3Cl)CC2)c(C(F)(F)F)c1` [N-{4-[1-(2-Chloro-benzoyl)-piperidin-4-yl]-3-trifluoromethyl-benzoyl}-guanidine], with 0.119 µM; and `COc1cccc(C(=O)N2CCC(c3ccc(C(=O)NC(=N)N)cc3C(F)(F)F)CC2)c1OC` [N-{4-[1-(2,3-Dimethoxy-benzoyl)-piperidin-4-yl]-3-trifluoromethyl-benzoyl}-guanidine], with 0.046 µM. For the compound `COc1ccc(C(=O)N2CCC(c3ccc(C(=O)NC(=N)N)cc3C(F)(F)F)CC2)cn1` [N-{4-[1-(6-Methoxy-pyridine-3-carbonyl)-piperidin-4-yl]-3-trifluoromethyl-benzoyl}-guanidine], the 50% inhibitory concentration (IC50) came out at 0.058 µM.

In the case of `N=C(N)NC(=O)c1ccc(C2CCN(C(=O)C3(N)CCCCC3)CC2)c(C(F)(F)F)c1` [N-{4-[1-(1-Amino-cyclohexanecarbonyl)-piperidin-4-yl]-3-trifluoromethyl-benzoyl}-guanidine], the concentration for half-maximal inhibition (IC50) is 0.033 µM. In the case of `N=C(N)NC(=O)c1ccc(C2CCN(C(=O)c3ccc(N4CCCC4)cc3)CC2)c(C(F)(F)F)c1` [N-{4-[1-(4-Pyrrolidin-1-yl-benzoyl)-piperidin-4-yl]-3-trifluoromethyl-benzoyl}-guanidine], the IC50 was found to be 0.25 µM. In the case of `N=C(N)NC(=O)c1ccc(C2CCN(C(=O)c3ccco3)C2)c(C(F)(F)F)c1` (stereo not drawn) [N-{4-[1-(Furan-2-carbonyl)-pyrrolidin-3-yl]-3-trifluoromethyl-benzoyl}-guanidine], the IC50 is 0.011 µM. Then `CC(C)(N)C(=O)N1CCC(c2ccc(C(=O)NC(=N)N)cc2C(F)(F)F)CC1` [N-{4-[1-(2-Amino-2-methyl-propionyl)-piperidin-4-yl]-3-trifluoromethyl-benzoyl}-guanidine], with 0.008 µM; and `N=C(N)NC(=O)c1ccc(C2CCN(C(=O)C3CCCN3)CC2)c(C(F)(F)F)c1` (stereo not drawn) [N-{4-[1-(Pyrrolidine-2-carbonyl)-piperidin-4-yl]-3-trifluoromethyl-benzoyl}-guanidine], with 0.011 µM; and `N=C(N)NC(=O)c1ccc(C2CCN(C(=O)c3ccc(-n4ccnc4)cc3)CC2)c(C(F)(F)F)c1` [N-{4-[1-(4-Imidazol-1-yl-benzoyl)-piperidin-4-yl]-3-trifluoromethyl-benzoyl}-guanidine], with 0.071 µM.

Regarding `C[S+]([O-])c1ccc(C(=O)N2CCC(c3ccc(C(=O)NC(=N)N)cc3C(F)(F)F)CC2)cc1` (stereo not drawn) [N-{4-[1-(4-Methanesulfinyl-benzoyl)-piperidin-4-yl]-3-trifluoromethyl-benzoyl}-guanidine], the 50% inhibitory concentration (IC50) was determined as 0.028 µM. On to `CN1CCCC(C(=O)N2CCC(c3ccc(C(=O)NC(=N)N)cc3C(F)(F)F)CC2)C1` (stereo not drawn) [N-{4-[1-(1-Methyl-piperidine-3-carbonyl)-piperidin-4-yl]-3-trifluoromethyl-benzoyl}-guanidine], for which the IC50 amounted to 0.01 µM. In the case of `N=C(N)NC(=O)c1ccc(C2CCN(C(=O)c3ccc4c(c3)CCO4)CC2)c(C(F)(F)F)c1` [N-{4-[1-(2,3-Dihydro-benzofuran-5-carbonyl)-piperidin-4-yl]-3-trifluoromethyl-benzoyl}-guanidine], the IC50 stood at 0.023 µM.

As to `N=C(N)NC(=O)c1ccc(C2CCN(C(=O)c3ccc(-c4cnco4)cc3)CC2)c(C(F)(F)F)c1` [N-{4-[1-(4-Oxazol-5-yl-benzoyl)-piperidin-4-yl]-3-trifluoromethyl-benzoyl}-guanidine], the IC50 amounted to 0.109 µM.

Take `Cn1cnc(C[C@@H](N)C(=O)N2CCC(c3ccc(C(=O)NC(=N)N)cc3C(F)(F)F)CC2)c1` [(R)-N-(4-{1-[-2--Amino-3-(1-methyl-1H-imidazol-4-yl)-propionyl]-piperidin-4-yl}-3-trifluoromethyl-benzoyl)-guanidine]: the half-maximal inhibitory concentration (IC50) turned out to be 0.043 µM. Then `N=C(N)NC(=O)c1ccc(C2CCN(C(=O)c3ccc(Cl)cc3)CC2)c(C(F)(F)F)c1` [N-{4-[1-(4-Chloro-benzoyl)-piperidin-4-yl]-3-trifluoromethyl-benzoyl}-guanidine], with 0.32 µM. In the case of `Cc1cc(C2CCN(C(=O)c3ccc(F)cc3)CC2)c(S(C)(=O)=O)cc1C(=O)NC(=N)N` [N-{4-[1-(4-Fluoro-benzoyl)-piperidin-4-yl]-5-methanesulfonyl-2-methyl-benzoyl}-guanidine], the IC50 amounted to 0.023 µM. As for `N=C(N)NC(=O)c1ccc(C2CCN(C(=O)c3cccc4ncccc34)CC2)c(C(F)(F)F)c1` [N-{4-[1-(Quinoline-5-carbonyl)-piperidin-4-yl]-3-trifluoromethyl-benzoyl}-guanidine], the half-maximal inhibitory concentration (IC50) worked out at 0.046 µM. For `N=C(N)NC(=O)c1ccc(C2CCN(C(=O)c3ccccn3)CC2)c(C(F)(F)F)c1` [N-{4-[1-(Pyridine-2-carbonyl)-piperidin-4-yl]-3-trifluoromethyl-benzoyl}-guanidine], the half-inhibitory concentration (IC50) came to 0.01 µM. To `CC(C)(C)C(N)C(=O)N1CCC(c2ccc(C(=O)NC(=N)N)cc2C(F)(F)F)CC1` (stereo not drawn) [N-{4-[1-(2-Amino-3,3-dimethyl-butyryl)-piperidin-4-yl]-3-trifluoromethyl-benzoyl}-guanidine] belongs 0.016 µM.

In the case of `N=C(N)NC(=O)c1ccc([C@@H]2CCN(C(=O)c3ccco3)C2)c(C(F)(F)F)c1` [(S)-N-{4-[-1-(Furan-2-carbonyl)-pyrrolidin-3--yl]-3-trifluoromethyl-benzoyl}-guanidine], the half-maximal inhibitory concentration (IC50) was determined as 0.017 µM.

Source of the values: patent publication US20110118262A1, “Pyrrolidinyl and Piperidinyl Compounds Useful as NHE-1 Inhibitiors” (BOEHRINGER INGELHEIM INTERNATIONAL GMBH, priority 2008, published 2011).
